Reference: PMC7284125, “Identification of annotated bioactive molecules that impair motility of the blood fluke Schistosoma mansoni” (International Journal for Parasitology: Drugs and Drug …, 2020)
Read-outs that look alike come from different tables or passages of the source. Residues, ends and D or L forms follow the SMILES beside them. *: point of attachment. Cbz = O=C(OCc1ccccc1)*

What was measured:
SmGPR2 = SmGPR2 (Schistosoma mansoni, UniProt G4VIY8); test: cell-based
Procedure: The SmGPR2 sequence previously identified ([El-Shehabi and Ribeiro, 2010]) was codon optimized for mammalian expression and subcloned in the vector pCI-neo (Addgene, USA) using the XbaI and NotI restriction enzymes. A FLAG fusion tag ([…]) was introduced at the N-terminal end of the receptor sequence. Stable transfection of HEK293 cells (ATCC; CRL-1573) was performed using the X-tremeGENE 9 DNA transfection reagent (Sigma Aldrich). Cells were then cultured at 37 °C, 5% CO2 in Opti-MEM supplemented with 5% FBS and maintained in 400 μg/mL G418 (Sigma Aldrich) for selection of transformants. […]
Adherent HEK293 cells were seeded at a density of 5 x 10^4 cells/well (96-well plate) in Opti-MEM without FBS or antibiotics and incubated overnight at 37 °C and 5% CO2 prior to the assay. […] After a 2 h incubation period at room temperature, luminescence background was recorded, and compounds and control ligands were added at 10X concentration. Immediately after compound addition, luminescence was read over a 45 min period to detect compounds stimulating cAMP release through receptor activation. […] For each assay, luminescence responses were recorded in triplicate and repeated with four independant cell batches. […] Cellular viability was assessed using a CellTiter Glo 2.0 kit (Promega). […] 2X cell lysis media was then added and end-point luminescence recorded after a 10 min stabilization time.

[1] = system: S. mansoni schistosomulae; test: Motility assay on schistosomulae (pixel displacement, relative to DMSO control); assay type: cell-based, Schistosoma mansoni; conditions: for activity at 1 µM: Schistosoma mansoni, read-out: Fractional motility
Summary of the method: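 Motility was scored by pixel displacement from 1-min videos (10 frames/s) and compared with DMSO controls. Schistosomulae (200/well, Opti-MEM, 5% dialyzed FBS, no antibiotics) received compound at 1 or 10 μM for 24 h; selected hits were also followed at 1, 3, 6 and 12 h.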

[2] = system: S. mansoni schistosomulae; test: Phenotypic primary screen assay on schistosomulae (phenotype; viability by methylene blue dye exclusion); assay type: cell-based; conditions: Schistosoma mansoni; three-day-old schistosomulae, 10 μM, 24 h; calculated 5 days post compound exposure; read-out: Viability (%)
S. mansoni adult worms = test: Motility assay on adult parasites (pixel displacement, relative to DMSO control); assay type: cell-based, Schistosoma mansoni; conditions: 10 μM; for Fractional motility: secondary screen
Summary of the method: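 Unpaired adult worms from mice 6 weeks post-infection kept in OPTI-MEM with 5% dialyzed FBS and exposed to compounds at 1 and 10 μM for 24 h. Motility filmed 1 min at 10 frames/s, quantified by pixel displacement versus DMSO-treated worms; recovery followed up to five days after washout.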

schistosomulae = system: schistosomulae; parameters: method as in El-Sakkary et al., 2018; conditions: 20 min exposure, 10 μM; ref El-Sakkary et al., 2018; cited from earlier work
[3] = system: S. mansoni schistosomulae; test: Phenotypic primary screen assay on schistosomulae (phenotype; viability by methylene blue dye exclusion); assay type: cell-based, Schistosoma mansoni; conditions: three-day-old schistosomulae, 10 μM, 24 h; for Phenotype: estimated 5 days post compound exposure; for Viability (%): calculated 5 days post compound exposure
Summary of the method: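 Parasites lacking contraction/relaxation cycles and showing dark internal granulations counted as dead. Movement and body shape were compared with DMSO-treated controls under a stereo microscope at 24 h and at five days of exposure. Larvae came from infected snails shed under light for 2 h at 32 °C.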

Sm5HTR = Sm5HTR (Schistosoma mansoni, UniProt G4V5G4); test: cAMP luminescence (GloSensor) assay, HEK293 cells expressing Sm5HTR; assay type: cell-based, S. mansoni; conditions: compound incubation followed by 50 μM 5-HT
[4] = system: naïve Glo HEK293 cells (no receptor); test: cAMP luminescence (GloSensor) assay on naïve Glo HEK293 cells (no receptor); assay type: cell-based, human; conditions: 20 μM forskolin
Procedure: The SmGPR2 sequence previously identified ([El-Shehabi and Ribeiro, 2010]) was codon optimized for mammalian expression and subcloned in the vector pCI-neo (Addgene, USA) using the XbaI and NotI restriction enzymes. A FLAG fusion tag ([…]) was introduced at the N-terminal end of the receptor sequence. Stable transfection of HEK293 cells (ATCC; CRL-1573) was performed using the X-tremeGENE 9 DNA transfection reagent (Sigma Aldrich). Cells were then cultured at 37 °C, 5% CO2 in Opti-MEM supplemented with 5% FBS and maintained in 400 μg/mL G418 (Sigma Aldrich) for selection of transformants. […] All cell lines expressing S. mansoni GPCRs were then transfected with the GloSensor encoding plasmid p22F (Promega) and media was supplemented with 100 μg/mL hygromycin for stable expression (ThermoFisher).
(§1) Adherent HEK293 cells were seeded at a density of 5 x 10^4 cells/well (96-well plate) in Opti-MEM without FBS or antibiotics and incubated overnight at 37 °C and 5% CO2 prior to the assay. In place of the media, 100 μL HBSS supplemented with 0.1% bovine serum albumin (BSA), 500 μM 3-isobutyl-1-methylxanthine (IBMX, Sigma Aldrich), 20 mM HEPES (pH 7.4) and 1 mg/mL D-luciferin (Goldbio) was added to each well. After a 2 h incubation period at room temperature, luminescence background was recorded, and compounds and control ligands were added at 10X concentration. Immediately after compound addition, luminescence was read over a 45 min period to detect compounds stimulating cAMP release through receptor activation. […] For each assay, luminescence responses were recorded in triplicate and repeated with four independant cell batches. Compounds were also added to naïve Glo HEK293 cells (no receptor) and the robustness of the assay was calculated as: Z^'=1−3×(SDmax+SDmin)/Meanmax−Meanmin with max and min referring respectively to cells expressing GPCRs and Glo (no receptor) cells. Cellular viability was assessed using a CellTiter Glo 2.0 kit (Promega). Glo cells were exposed to 10 μM of each hit compound for 3 h in Opti-MEM at 37 °C, 5% CO2. An equimolar concentration of tamoxifen (Sigma Aldrich) was used as a positive control. 2X cell lysis media was then added and end-point luminescence recorded after a 10 min stabilization time.

adult schistosomes = system: adult schistosomes; parameters: method as in Neves et al., 2016; conditions: transient hyperactivity, ref Neves et al., 2016, cited from earlier work
proteasome = system: proteasome; parameters: method as in Bibo-Verdugo et al., 2019; conditions: in vitro; ref Bibo-Verdugo et al., 2019; cited from earlier work
schistosomes [5] = system: schistosomes; parameters: method as in Marcellino et al., 2012; conditions: ref Marcellino et al., 2012; cited from earlier work
schistosomes [6] = system: schistosomes; parameters: method as in Bibo-Verdugo et al., 2019; conditions: in vitro; ref Bibo-Verdugo et al., 2019; cited from earlier work
schistosomes [7] = system: schistosomes; parameters: method as in Guerra-Sa et al., 2005; conditions: treated mice; ref Guerra-Sa et al., 2005; cited from earlier work
Glo HEK293 cells = test: Cellular viability, CellTiter Glo 2.0; assay type: cell-based, human; conditions: 10 μM, 3 h
Procedure: as §1, with “An equimolar concentration of tamoxifen (Sigma Aldrich) was used as a positive control.” left out

[8] = 120 h, schistosomulae, secondary screen, 24h exposure, read at D5, 1 µM
[9] = schistosomulae, secondary screen, 24h exposure, read at D1, 1 µM
[10] = schistosomulae, secondary screen, 24h exposure, read at D1, 10 µM
[11] = schistosomulae, secondary screen, 24h exposure, read at D5, 10 µM
[12] = schistosomulae, 1h exposure, read at D1, 10 µM
[13] = schistosomulae, 1h exposure, read at D5, 10 µM
[14] = schistosomulae, 3h exposure, read at D1, 10 µM
[15] = schistosomulae, 3h exposure, read at D5, 10 µM
[16] = schistosomulae, 6h exposure, read at D1, 10 µM
[17] = schistosomulae, 6h exposure, read at D5, 10 µM
[18] = schistosomulae, secondary screen, 24h exposure, read at D5, 1 µM

Sm5HTR, sequence (G4V5G4 entry or part of it): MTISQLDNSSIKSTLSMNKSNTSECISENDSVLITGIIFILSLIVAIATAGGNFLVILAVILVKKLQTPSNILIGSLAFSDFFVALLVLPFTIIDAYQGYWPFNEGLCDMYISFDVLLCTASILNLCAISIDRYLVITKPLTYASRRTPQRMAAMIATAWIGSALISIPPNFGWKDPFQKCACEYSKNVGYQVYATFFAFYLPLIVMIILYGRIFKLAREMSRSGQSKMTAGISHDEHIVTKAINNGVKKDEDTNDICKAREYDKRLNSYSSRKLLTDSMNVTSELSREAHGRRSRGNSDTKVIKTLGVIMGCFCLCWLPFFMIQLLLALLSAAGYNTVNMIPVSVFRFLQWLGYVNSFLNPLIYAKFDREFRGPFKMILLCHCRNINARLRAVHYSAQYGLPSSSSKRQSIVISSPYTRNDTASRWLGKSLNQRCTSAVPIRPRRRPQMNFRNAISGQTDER
SmGPR2, sequence (G4VIY8 entry or part of it): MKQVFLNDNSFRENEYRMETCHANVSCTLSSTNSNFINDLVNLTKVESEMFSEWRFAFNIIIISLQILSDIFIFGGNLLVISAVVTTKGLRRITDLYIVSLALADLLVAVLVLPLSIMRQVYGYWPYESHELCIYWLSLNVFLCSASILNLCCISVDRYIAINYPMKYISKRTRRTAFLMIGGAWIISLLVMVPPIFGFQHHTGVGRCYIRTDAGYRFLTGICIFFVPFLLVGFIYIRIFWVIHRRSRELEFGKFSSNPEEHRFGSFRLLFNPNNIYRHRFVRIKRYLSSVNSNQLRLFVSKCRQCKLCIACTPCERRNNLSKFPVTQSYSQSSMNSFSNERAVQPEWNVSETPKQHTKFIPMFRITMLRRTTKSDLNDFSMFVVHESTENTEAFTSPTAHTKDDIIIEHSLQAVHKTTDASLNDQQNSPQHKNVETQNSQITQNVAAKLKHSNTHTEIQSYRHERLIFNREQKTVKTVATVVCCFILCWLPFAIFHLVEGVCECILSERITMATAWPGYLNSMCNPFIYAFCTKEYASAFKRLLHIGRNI

Structure (SMILES) | Fractional motility [1, 10] | Fractional motility [1, 11] | viability at 10 µM [2] [%] | Fractional motility (S. mansoni adult worms; D1, Female adult worms) | Fractional motility (S. mansoni adult worms; D1, Male adult worms) | Fractional motility (S. mansoni adult worms; D5, Female adult worms) | Fractional motility (S. mansoni adult worms; D5, Male adult worms) | Phenotype [3] | Fractional motility [1, 12] | Fractional motility [1, 13] | Fractional motility [1, 14] | Fractional motility [1, 15] | Fractional motility [1, 16] | Fractional motility [1, 17] | inhibition of Sm5HTR 5-HT-evoked signals (Sm5HTR) [%] | effect on luminescence evoked by forskolin [4] | other results
NCCc1c[nH]cn1 [histamine] |  |  |  |  |  |  |  |  |  |  |  |  |  |  |  |  | EC50 (SmGPR2): 12.5 ± 1.5 µM
CN(C)CCCN1c2ccccc2Sc2ccc(Cl)cc21 [Chlorpromazine] | 13.78 | 3.15 | 96 | 0.57 | 2.38 | -0.45 | 0.24 | elongated |  |  |  |  |  |  |  |  | hypermotility compared to control schistosomulae ([1]; 10 μM): > 10 fold; activity at 1 µM [1, 8]: 95%; activity at 1 µM [1, 9]: 785%; peak motility relative to control schistosomulae (schistosomulae): exceeding 50 fold
O=[N+]([O-])c1ccc2c(c1)S(=O)(=O)C=C2 [Stattic] | 1.23 | -0.96 |  | 0.39 | -0.03 | -0.90 | 0.23 | big, dark, granulated | -0.71 | -0.69 | -0.97 | -1.00 | -0.91 | -0.99 | ≥ 50 | significant decrease in luminescence | Fractional motility [1, 9]: 0.84; Fractional motility [1, 18]: -0.47; Viability (%) [3]: 0%
Fc1ccc([C@@H]2CCNC[C@H]2COc2ccc3c(c2)OCO3)cc1 [Paroxetine] |  |  | 90 | 0.47 | 1.07 | -0.42 | -0.49 | granulated |  |  |  |  |  |  |  |  | activity at 1 µM ([1]; 120 h, Selleckchem customized library secondary screen, 24h, D5, 1 µM): 256%; Fractional motility ([1]; Selleckchem customized library secondary screen, 24h, D1, 10 µM): 55.45; Fractional motility ([1]; Selleckchem customized library secondary screen, 24h, D5, 10 µM): 1.54; motility phenotype in words ([1]; schistosomulae, after 24 h exposure): high levels of hypermotility; EC50 (adult schistosomes; female worms): 11.9 µM; EC50 (adult schistosomes; male worms): 2.7 µM
CC(C)C[C@H](NC(=O)[C@H](CCc1ccccc1)NC(=O)CN1CCOCC1)C(=O)N[C@@H](Cc1ccccc1)C(=O)N[C@@H](CC(C)C)C(=O)[C@@]1(C)CO1 [carfilzomib] |  |  |  |  |  |  |  |  |  |  |  |  |  |  |  |  | reduction of proteasome activity (proteasome): > 75%; motility reduction (schistosomes [5]): > 90%; reduction of worm motility (schistosomes [6]): > 85%
O=[N+]([O-])C=Cc1ccc2c(c1)OCO2 [MNS, 3,4-methylenedioxy-β-nitrostyrene] | 2.46 | -0.0952 | 43 | -0.14 | -0.40 | -0.83 | -0.55 | blebbing, dark, granulated | -0.95 | -0.06 | -0.96 | -0.87 | -0.83 | -0.87 | ≥ 50 | significant decrease in luminescence | activity at 1 µM [1, 8]: 103%; activity at 1 µM [1, 9]: 241%
CC(C)C[C@@H](C=O)NC(=O)[C@H](CC(C)C)NC(=O)[C@H](CC(C)C)NC(=O)OCc1ccccc1 [MG-132] (Cbz-Leu-Leu-Leu-aldehyde) |  |  |  |  |  |  |  |  |  |  |  |  |  |  |  |  | fewer parasites migrated to the lung compared to control animals (schistosomes [7]): 65%
CC(C)C[C@H](NC(=O)[C@H](Cc1ccccc1)NC(=O)c1cnccn1)B(O)O [bortezomib] |  |  |  |  |  |  |  |  |  |  |  |  |  |  |  |  | reduction of proteasome activity (proteasome): > 75%; motility reduction (schistosomes [5]): > 90%; reduction of worm motility (schistosomes [6]): > 85%
Cc1ccc(S(=O)(=O)c2ccc([N+](=O)[O-])o2)cc1 [NSC697923] | 3.05 | -1.00 |  | 0.25 | 0.30 | -0.95 | -0.78 | dark, granulated | -0.93 | -1.00 | -1.00 | -0.99 | -0.93 | -0.99 | ≥ 50 | significant decrease in luminescence | Fractional motility [1, 9]: -0.18; Fractional motility [1, 18]: -0.90; motility phenotype in words (S. mansoni adult worms; adults, long-term after washout): Significant hypomotility; reduction of ATP released by cells (Glo HEK293 cells): 48.1 ± 5.7%; Viability (%) [3]: 0%
